Target: recombinant human MGAT2 (Homo sapiens (Human), UniProt Q3SYC2)
Assay: Measurement of human MGAT2 inhibitory activity
Type: biochemical
Conditions: read-out: IC50 (concentration exhibiting 50% enzyme inhibition), Table 52
Method: A full-length human MGAT2 gene to which a Flag-tag had been added at the N-terminal was inserted into pFastBac (from Invitrogen). A recombinant baculovirus was produced in accordance with the protocol for a Bac-to-Bac baculovirus expression system (produced by Invitrogen), and Sf-9 cells were infected therewith. The cells were collected and sonicated, and then the membrane fraction was collected through centrifugation. Western blotting analysis with an anti-Flag antibody was performed for the membrane fraction to confirm expression, and the membrane fraction was used as a recombinant human MGAT2 enzyme solution.
Solutions of the compounds of the present invention in DMSO were each aliquoted into 0.2-μL portions in a 384-well polystyrene microplate produced by Corning Incorporated, and 5 μL of an enzyme solution prepared with an assay buffer (100 mmol/L phosphate buffer (pH 7.4) containing 2 mmol/L DTT) and 5 μL of a substrate solution (100 mmol/L phosphate buffer (pH 7.4), 30 μmol/L 2-Oleoylglycerol, 10 μmol/L Oleoyl-CoA) were added thereto, and the resultant was stirred and centrifuged, and incubated in a moist chamber at room temperature for 1 hour. After enzymatic reaction, 50 μL of a quenching solution (containing 0.2 μmol/L Diolein-d5, 0.4% formic acid, and 50% isopropanol) containing Internal Standard (IS) was added to terminate the reaction, and the resultant was sealed in a plate produced by Shimadzu GLC Ltd., and then stirred and centrifuged, and measurement was performed by using an electrospray ionization method with a RapidFire360 and Agilent 6550 Q-TOF mass spectrometer. Diolein as a reaction product (P) of 2-Oleoylglycerol as the substrate and an ammonium adduct ion of the IS were detected, and the peak intensity ratio, P/IS, was calculated from the peak heights to evaluate the inhibitory activity. Inhibitory activities with/without addition of enzyme were defined as Control (+)/Control (−), respectively, and the respective % inhibitions were defined as 0% inhibition and 100% inhibition. The inhibitory activity was calculated from formula below with TIBCO Spotfire (produced by TIBCO Software Inc.): Inhibitory activity (%)=[1−{Sample−Control(−)}/{Control(+)−Control(−)}]*100 where Sample indicates a peak intensity ratio: P/IS, when the compound of the present invention was added.

recombinant human MGAT2, sequence (Q3SYC2 whole entry): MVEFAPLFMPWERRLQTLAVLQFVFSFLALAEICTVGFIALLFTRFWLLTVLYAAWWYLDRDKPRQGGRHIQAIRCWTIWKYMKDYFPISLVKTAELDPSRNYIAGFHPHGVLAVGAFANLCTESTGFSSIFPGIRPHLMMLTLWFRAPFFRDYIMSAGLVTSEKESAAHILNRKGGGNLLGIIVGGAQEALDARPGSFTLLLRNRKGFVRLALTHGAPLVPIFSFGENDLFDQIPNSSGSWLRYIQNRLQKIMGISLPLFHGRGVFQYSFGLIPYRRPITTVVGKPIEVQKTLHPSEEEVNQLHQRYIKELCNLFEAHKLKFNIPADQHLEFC

IC50 [nM] | Structure (SMILES)
400 | CCCCn1nc(NC(=O)CS(C)(=O)=O)c2c1C[C@]1(CCc3cc(OCCCC(F)(F)F)ccc31)NC2=O [Compound I-63]
410 | CS(=O)(=O)CC(=O)Nc1nn(CCOCC(F)F)c2c1C(=O)N[C@@]1(CCc3cc(OCCCC(F)(F)F)ccc31)C2 [Compound I-64]
660 | CS(=O)(=O)CC(=O)Nc1nn(CCC2CCCCC2)c2c1C(=O)N[C@@]1(CCc3cc(OCCCC(F)(F)F)ccc31)C2 [Compound I-65]
970 | CS(=O)(=O)CC(=O)Nc1nn(CCn2cccn2)c2c1C(=O)N[C@@]1(CCc3cc(OCCCC(F)(F)F)ccc31)C2 [Compound I-66]
760 | O=C1N[C@@]2(CCc3cc(OCC(F)(F)F)ccc32)Cc2nn(CCC3CC3)c(C(=O)NC3CS(=O)(=O)C3)c21 [Compound I-68]
55 | CC(C)(O)CCn1nc2c(c1NC(=O)CS(C)(=O)=O)C(=O)N[C@@]1(CCc3cc(OCCCC(F)(F)F)ccc31)C2 [Compound I-69]
54 | CS(=O)(=O)CC(=O)Nc1c2c(nn1CCC1CC1)C[C@](c1ccc(OCC(F)(F)F)cc1)(C(F)(F)F)NC2=O [Compound I-70]
3.9 | CS(=O)(=O)CC(=O)Nc1c2c(nn1CCC1CC1)C[C@@]1(CCc3cc(OCC(F)(F)F)ccc31)NC2=O [Compound I-71]
8.3 | O=C1N[C@@]2(CCc3cc(OCCCC(F)(F)F)ccc32)Cc2nn(CCC3CC3)c(C(=O)NS(=O)(=O)C3CC3)c21 [Compound I-72]
290 | CS(=O)(=O)CC(=O)Nc1nn(CC2CCC(C(F)(F)F)CC2)c2c1C(=O)N[C@@]1(CCc3cc(OCCCC(F)(F)F)ccc31)C2 (stereo partly shown) [Compound I-73]
520 | Cc1cccc(Cn2nc(NC(=O)CS(C)(=O)=O)c3c2C[C@]2(CCc4cc(OCCCC(F)(F)F)ccc42)NC3=O)c1 [Compound I-74]
580 | Cc1ccccc1Cn1nc(NC(=O)CS(C)(=O)=O)c2c1C[C@]1(CCc3cc(OCCCC(F)(F)F)ccc31)NC2=O [Compound I-75]
95.5 | CS(=O)(=O)CC(=O)Nc1c2c(nn1C1CCCC1)C[C@]1(CCc3cc(OCC(F)(F)F)ccc31)NC2=O [Compound I-76]
1 | CS(=O)(=O)CC(=O)Nc1c2c(nn1-c1ccc(Cl)cn1)C[C@]1(CCc3cc(OCC(F)(F)F)ccc31)NC2=O [Compound I-77]
37.5 | O=C(Nc1c2c(nn1CCC1CC1)C[C@]1(CCc3cc(OCC(F)(F)F)ccc31)NC2=O)c1cccnc1 [Compound I-78]
860 | O=C(Nc1c2c(nn1CCC1CC1)C[C@]1(CCc3cc(OCC(F)(F)F)ccc31)NC2=O)c1ccccn1 [Compound I-79]
16 | O=C(Nc1c2c(nn1CCC1CC1)C[C@]1(CCc3cc(OCC(F)(F)F)ccc31)NC2=O)c1ccncc1 [Compound I-80]
240 | O=C(Nc1c2c(nn1CCC1CC1)C[C@]1(CCc3cc(OCC(F)(F)F)ccc31)NC2=O)c1cccnn1 [Compound I-81]
230 | O=C1N[C@@]2(CCc3cc(OCC(F)(F)F)ccc32)Cc2nn(CCC3CC3)c(CNC(=O)C3CCCC3)c21 [Compound I-82]
110 | CC1(C(=O)NCc2c3c(nn2CCC2CC2)C[C@]2(CCc4cc(OCC(F)(F)F)ccc42)NC3=O)COC1 [Compound I-83]
430 | N#CCNC(=O)c1c2c(nn1CCC1CC1)C[C@]1(CCc3cc(OCC(F)(F)F)ccc31)NC2=O [Compound I-84]
570 | O=C1N[C@@]2(CCc3cc(OCC(F)(F)F)ccc32)Cc2nn(CCC3CC3)c(C(=O)NCCO)c21 [Compound I-85]
960 | O=C1N[C@@]2(CCc3cc(OCC(F)(F)F)ccc32)Cc2nn(CCC3CC3)c(C(=O)NC3CCOC3)c21 (stereo partly shown) [Compound I-86]
440 | CS(=O)(=O)CCNC(=O)c1c2c(nn1CCC1CC1)C[C@]1(CCc3cc(OCC(F)(F)F)ccc31)NC2=O [Compound I-87]
270 | CC1(NC(=O)c2c3c(nn2CCC2CC2)C[C@]2(CCc4cc(OCC(F)(F)F)ccc42)NC3=O)COC1 [Compound I-88]
55 | O=C1N[C@@]2(CCc3cc(OCC(F)(F)F)ccc32)Cc2nn(CCC3CC3)c(C(=O)NCC3(CO)COC3)c21 [Compound I-89]
33 | O=C1N[C@@]2(CCc3cc(OCC(F)(F)F)ccc32)Cc2nn(CCC3CC3)c(C(=O)NCC3(O)CCC3)c21 [Compound I-90]
1.2 | CS(=O)(=O)CC(=O)Nc1c2c(nn1-c1ccc(Br)cn1)C[C@]1(CCc3cc(OCC(F)(F)F)ccc31)NC2=O [Compound I-91]

IC50 [nM] | Structure (SMILES)
73 | Cc1cc(C(=O)Nc2c3c(nn2CCC2CC2)C[C@]2(CCc4cc(OCC(F)(F)F)ccc42)NC3=O)on1 [Compound I-92]
160 | CS(=O)(=O)CC(=O)Nc1c2c(nn1CCC1CC1)C[C@]1(CCc3cc(C#N)ccc31)NC2=O [Compound I-93]
3.7 | CS(=O)(=O)CC(=O)Nc1c2c(nn1CCC1CC1)C[C@]1(CCc3cc(OCC(F)(F)F)cc(F)c31)NC2=O [Compound I-94]
5.1 | CS(=O)(=O)CC(=O)Nc1c2c(nn1-c1ccc(C(F)(F)F)cc1)C[C@]1(CCc3cc(OCC(F)(F)F)ccc31)NC2=O [Compound I-95]
54 | CS(=O)(=O)CC(=O)Nc1c2c(nn1C1CCCCC1)C[C@]1(CCc3cc(OCC(F)(F)F)ccc31)NC2=O [Compound I-96]
6.9 | Cc1ccc(-n2nc3c(c2NC(=O)CS(C)(=O)=O)C(=O)N[C@@]2(CCc4cc(OCC(F)(F)F)ccc42)C3)cc1 [Compound I-97]
8.5 | Cc1cccc(-n2nc3c(c2NC(=O)CS(C)(=O)=O)C(=O)N[C@@]2(CCc4cc(OCC(F)(F)F)ccc42)C3)c1 [Compound I-98]
6.2 | CS(=O)(=O)CC(=O)Nc1c2c(nn1-c1ccc(F)cc1)C[C@]1(CCc3cc(OCC(F)(F)F)ccc31)NC2=O [Compound I-99]
32 | COc1ccc(-n2nc3c(c2NC(=O)CS(C)(=O)=O)C(=O)N[C@@]2(CCc4cc(OCC(F)(F)F)ccc42)C3)cc1 [Compound I-100]
17 | CS(=O)(=O)CC(=O)Nc1c2c(nn1-c1ccccn1)C[C@]1(CCc3cc(OCC(F)(F)F)ccc31)NC2=O [Compound I-101]
25 | CS(=O)(=O)CC(=O)Nc1c2c(nn1CCC1CC1)C[C@]1(CCc3cc(NCC(F)(F)F)ccc31)NC2=O [Compound I-102]
320 | CS(=O)(=O)CC(=O)Nc1c2c(nn1-c1ccccn1)C[C@](c1ccc(OCC(F)(F)F)cc1)(C(F)(F)F)NC2=O [Compound I-103]
12 | CS(=O)(=O)CC(=O)Nc1c2c(nn1-c1ccccn1)C[C@@]1(CCc3cc(OCC(F)(F)F)ccc31)NC2=O [Compound I-104]
6.8 | CS(=O)(=O)CC(=O)Nc1c2c(nn1-c1ccccn1)C[C@]1(CCOc3cc(OCC(F)(F)F)ccc31)NC2=O [Compound I-105]
11 | CS(=O)(=O)CC(=O)Nc1c2c(nn1-c1ccc(C3CC3)cc1)C[C@]1(CCc3cc(OCCCC(F)(F)F)ccc31)NC2=O [Compound I-106]
760 | O=C1N[C@@]2(CCc3cc(OCC(F)(F)F)cc(F)c32)Cc2nn(-c3ccccn3)c(-c3nnn[nH]3)c21 [Compound I-107]
2.9 | O=C1N[C@@]2(CCc3cc(OCC(F)(F)F)ccc32)Cc2nn(CCC3CC3)c(C(=O)NS(=O)(=O)C(F)(F)F)c21 [Compound I-108]
6.1 | O=C1N[C@@]2(CCc3cc(OCC(F)(F)F)ccc32)Cc2nn(CCC3CC3)c(C(=O)NS(=O)(=O)C(F)F)c21 [Compound I-109]
10 | CC1(S(=O)(=O)NC(=O)c2c3c(nn2CCC2CC2)C[C@]2(CCc4cc(OCC(F)(F)F)ccc42)NC3=O)CC1 [Compound I-110]
190 | O=C1N[C@@]2(CCc3cc(OCC(F)(F)F)ccc32)Cc2nn(CCC3CC3)c(C(=O)NS(=O)(=O)c3ccccc3)c21 [Compound I-111]
44.5 | COCCS(=O)(=O)NC(=O)c1c2c(nn1CCC1CC1)C[C@]1(CCc3cc(OCC(F)(F)F)ccc31)NC2=O [Compound I-112]
810 | O=C1N[C@@]2(CCc3cc(OCC(F)(F)F)ccc32)Cc2nn(CCC3CC3)c(C(=O)NS(=O)(=O)C3CCCC3)c21 [Compound I-113]
110 | COCCCS(=O)(=O)NC(=O)c1c2c(nn1CCC1CC1)C[C@]1(CCc3cc(OCC(F)(F)F)ccc31)NC2=O [Compound I-114]
64 | CCOCCS(=O)(=O)NC(=O)c1c2c(nn1CCC1CC1)C[C@]1(CCc3cc(OCC(F)(F)F)ccc31)NC2=O [Compound I-115]
260 | O=C1N[C@@]2(CCc3cc(OCC(F)(F)F)ccc32)Cc2nn(CCC3CC3)c(C(=O)NS(=O)(=O)CC3CC3)c21 [Compound I-116]
51 | CC(C)S(=O)(=O)NC(=O)c1c2c(nn1CCC1CC1)C[C@]1(CCc3cc(OCC(F)(F)F)ccc31)NC2=O [Compound I-117]
370 | CC(C)(C)S(=O)(=O)NC(=O)c1c2c(nn1CCC1CC1)C[C@]1(CCc3cc(OCC(F)(F)F)ccc31)NC2=O [Compound I-118]
